What is called viability, T/C is the result in the treated group divided by that in the control group, in per cent. In general, IC50 refers to the concentration at which inhibition is half-maximal.

This test has as its system 521955-158-R2-J5-PDC spheroids with stroma, growth inhibition. The test is described as follows: Anticancer human tumor 521955-158-R2-J5-PDC patient-derived pancreatic carcinoma cell line growth inhibition [TAK]. Conditions: for viability, T/C: stronger effect = lower value. From the text:
Combinatorial screen of targeted agents with TAK-243 and ipatasertib in multi-cell type tumor spheroids
A high-throughput screen of multi-cell type tumor spheroids was designed to identify active combinations of targeted small molecules and TAK-243 or ipatasertib. Complex spheroids include a stromal component modeled by human endothelial cells (HUVEC) and fibroblasts modeled by human mesenchymal stem cells (MSCs). The concentration ranges selected for each drug and investigational agent were based upon clinically achievable concentrations if the clinical Cmax of the agent was known.
Compounds. The drugs and investigational agents: TAK-243 (785004), ipatasertib (767898), everolimus (733504), selumetinib (741078), bortezomib (756655), trametinib (758246), ixazomib (758254), vemurafenib (761431), dabrafenib (764134), sapanisertib (764658), alpelisib (765974), and copanlisib (816437), were obtained from the National Cancer Institute (NCI) Developmental Therapeutics Program Chemical Repository. The FDA-approved anticancer drug set is available from the NCI Developmental Therapeutics Program. […] The stock solutions were prepared in dimethyl sulfoxide (DMSO, Sigma-Aldrich, St. Louis, MO, cat. D2650) at 800-fold the tested concentration and stored at -70 degrees C prior to their use. All drugs and investigational agents were tested over a range starting from a high concentration at or near the clinical Cmax and decreasing in half-log increments. If the clinical Cmax for an agent had not been determined, the highest concentration tested was 10 microM.
NCI60 Cell Culture. NCI60 cell lines were obtained from the NCI Developmental Therapeutics Program Tumor Repository. For each lot of cells, the Repository performed Applied Biosystems AmpFLSTR Identifiler testing with PCR amplification to confirm consistency with the published Identifier STR profile for each cell line. Cells were kept in continuous culture for no more than 20 passages. The optimal seeding densities for each of the cell lines at each time point assessed were determined prior to performing the concentration response studies. Briefly, the NCI60 human tumor lines were grown as monolayers in RPMI 1640 medium supplemented with 10% FBS and 2 mmol/L L-glutamine.
An additional 2 lines were from the NCI60 cell line panel including melanomas, MALME-3M and SK-MEL-2. Pooled donor human umbilical vein endothelial cells (HUVEC, Lonza, cat. CC-2519) and human mesenchymal stem cells (hMSC, Lonza, cat. PT-2501) were purchased from Lonza (Walkersville, MD).
PDMR cell lines were grown in complete medium (DC medium): Dulbecco's modified Eagle's medium (DMEM)/F12 supplemented with 5% fetal bovine serum (FBS), 2 mM L-glutamine, 100 U/mL penicillin and 100 µg/ml streptomycin, 0.4 µg/ml hydrocortisone, 10 ng/ml epidermal growth factor (EGF) recombinant human protein, 24 µg/mL adenine, and 0.1 mg/mL primocin. During culture from frozen stock vials, PDMR cells were cultured in the same medium containing 10 µM Y-27632 (see Table 3). The PDCs were cultured in complete DMEM/F12 media without 10 microM Y-27632 dihydrochloride for at least two passages prior to the screen. The pooled donor HUVEC and hMSC were cultured in endothelial cell growth medium 2 (PromoCell, Heidelberg, Germany, cat. C-22011) and mesenchymal stem cell growth medium 2 (PromoCell, cat. C-28009), respectively. For all experiments, HUVEC and hMSC were used at passages </=5.
For the pre-screen, cell seeding densities were determined from a titration spanning the range from 5,000 to 313 cells per well. The mct-spheroids including 60% malignant cells, 25% HUVEC and 15% MSC dispensed as a mixture into U-bottom Ultra-Low Attachment 384-well plates (Corning, NY)
High-throughput Drug Combination Screening.
Prior to their inoculation into 384-well plates, malignant cells, HUVEC, and hMSC were removed from T flasks using TrypLE express (Thermo Fisher Scientific, cat. 12605036) and harvested by centrifugation for 5 min at 233 x g. […]

The mark [1] stands for this setting: curve of first compound, second compound 0.3 µM.
[2] abbreviates: curve of first compound, second compound 0.949 µM.
Where [3] appears, read: curve of first compound, second compound 3 µM.
Where [4] appears, read: curve of first compound, second compound 9.49 µM.
[5] abbreviates: curve of first compound, second compound 30 µM.

Where “and” joins values, the source holds several entries; their conditions need not be identical. Equal entries are not always repeated. A value given as a limit tells only on which side of the number the result lay.
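Note: spheroids exposed to drugs for seven days before readout.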

Take `Cn1cnc2c(F)c(Nc3ccc(Br)cc3Cl)c(C(=O)NOCCO)cc21`: the viability, T/C was 77.5% and 65.7% (compound 0.00949 µM); 49.3% and 60.3% (compound 0.03 µM); 45.1% and 51.2% (compound 0.0949 µM); 42.5% and 42.8% (compound 0.3 µM); 40.2% and 36% (compound 0.949 µM); 34% and 28.5% (compound 3 µM). Under “curve of compound”, the IC50 was 38.2 nM and 117 nM.

Take `CCCS(=O)(=O)Nc1ccc(F)c(C(=O)c2c[nH]c3ncc(-c4ccc(Cl)cc4)cc23)c1F` + CC(C)NCC(C(=O)N1CCN(c2ncnc3c2C(C)CC3O)CC1)c1ccc(Cl)cc1: the IC50 was > 100000 nM under setting [1]; > 100000 nM under setting [2]; 15900 nM under setting [3]; 6340 nM under setting [4]; 1140 nM under setting [5]. Moreover, the viability, T/C reads like this: (second compound 0.3 µM, first compound 0.316 µM) 107%; (second compound 0.3 µM, first compound 1 µM) 134%; (second compound 0.3 µM, first compound 3.16 µM) 108%; (second compound 0.3 µM, first compound 10 µM) 165%; (second compound 0.3 µM, first compound 31.6 µM) 18.9%; (second compound 0.3 µM, first compound 100 µM) 122%. For the same compound, the viability, T/C (second compound 0.949 µM, first compound 0.316 µM) is 108%; the viability, T/C (second compound 0.949 µM, first compound 1 µM) was 123%; the viability, T/C (second compound 0.949 µM, first compound 3.16 µM) is 107%; the viability, T/C (second compound 0.949 µM, first compound 10 µM) was 103%; the viability, T/C (second compound 0.949 µM, first compound 31.6 µM) is 22.2%; the viability, T/C (second compound 0.949 µM, first compound 100 µM) was 111%. Also, the viability, T/C by setting is: (second compound 3 µM, first compound 0.316 µM) 100%; (second compound 3 µM, first compound 1 µM) 99.4%; (second compound 3 µM, first compound 3.16 µM) 99.2%; (second compound 3 µM, first compound 10 µM) 70.1%; (second compound 3 µM, first compound 31.6 µM) 19.9%; (second compound 3 µM, first compound 100 µM) 12.1%. Besides, the viability, T/C was 84.8% (second compound 9.49 µM, first compound 0.316 µM); 89.8% (second compound 9.49 µM, first compound 1 µM); 69.9% (second compound 9.49 µM, first compound 3.16 µM); 36.1% (second compound 9.49 µM, first compound 10 µM); 14.2% (second compound 9.49 µM, first compound 31.6 µM); 6.73% (second compound 9.49 µM, first compound 100 µM). Besides, the viability, T/C was 51.7% (second compound 30 µM, first compound 0.316 µM); 50.9% (second compound 30 µM, first compound 1 µM); 40.4% (second compound 30 µM, first compound 3.16 µM); 5.79% (second compound 30 µM, first compound 10 µM); 4.82% (second compound 30 µM, first compound 31.6 µM); 4.7% (second compound 30 µM, first compound 100 µM).

In the case of `CC(C)n1nc(-c2ccc3oc(N)nc3c2)c2c(N)ncnc21` + CC(C)NCC(C(=O)N1CCN(c2ncnc3c2C(C)CC3O)CC1)c1ccc(Cl)cc1, the concentration for half-maximal inhibition (IC50) under setting [1] stood at 32 nM; the half-maximal inhibitory concentration (IC50) under setting [2] came out at 34.9 nM; the IC50 under setting [3] was 17.7 nM; the IC50 under setting [4] was 8.6 nM; the IC50 under setting [5] came out at 0.516 nM. For the same compound, the viability, T/C by setting is: (second compound 0.3 µM, first compound 0.000316 µM) 106%; (second compound 0.3 µM, first compound 0.001 µM) 96.9%; (second compound 0.3 µM, first compound 0.00316 µM) 85%; (second compound 0.3 µM, first compound 0.01 µM) 60.4%; (second compound 0.3 µM, first compound 0.0316 µM) 54.8%; (second compound 0.3 µM, first compound 0.1 µM) 36.5%. The viability, T/C (second compound 0.949 µM, first compound 0.000316 µM) was 78.3%; the viability, T/C (second compound 0.949 µM, first compound 0.001 µM) is 69.3%; the viability, T/C (second compound 0.949 µM, first compound 0.00316 µM) was 65.7%; the viability, T/C (second compound 0.949 µM, first compound 0.01 µM) is 66.9%; the viability, T/C (second compound 0.949 µM, first compound 0.0316 µM) was 49.6%; the viability, T/C (second compound 0.949 µM, first compound 0.1 µM) is 36%. Further, the viability, T/C (second compound 3 µM, first compound 0.000316 µM) is 83.5%; the viability, T/C (second compound 3 µM, first compound 0.001 µM) is 77.8%; the viability, T/C (second compound 3 µM, first compound 0.00316 µM) is 84.8%; the viability, T/C (second compound 3 µM, first compound 0.01 µM) was 62.3%; the viability, T/C (second compound 3 µM, first compound 0.0316 µM) was 37.6%; the viability, T/C (second compound 3 µM, first compound 0.1 µM) is 28.2%. Moreover, the viability, T/C is, setting by setting: (second compound 9.49 µM, first compound 0.000316 µM) 110%; (second compound 9.49 µM, first compound 0.001 µM) 102%; (second compound 9.49 µM, first compound 0.00316 µM) 79.2%; (second compound 9.49 µM, first compound 0.01 µM) 44.2%; (second compound 9.49 µM, first compound 0.0316 µM) 29.1%; (second compound 9.49 µM, first compound 0.1 µM) 19.3%. The viability, T/C reads like this: (second compound 30 µM, first compound 0.000316 µM) 52.1%; (second compound 30 µM, first compound 0.001 µM) 47.1%; (second compound 30 µM, first compound 0.00316 µM) 37.5%; (second compound 30 µM, first compound 0.01 µM) 17.1%; (second compound 30 µM, first compound 0.0316 µM) 10.4%; (second compound 30 µM, first compound 0.1 µM) 9.55%.

`Cc1nc(NC(=O)N2CCCC2C(N)=O)sc1-c1ccnc(C(C)(C)C(F)(F)F)c1` (centres undefined): the viability, T/C runs as follows: (compound 0.0316 µM) 90.1% and 88.9%; (compound 0.1 µM) 88.6% and 71.4%; (compound 0.316 µM) 77.4% and 65.2%; (compound 1 µM) 62.1% and 51.6%; (compound 3.16 µM) 49.1% and 47.6%; (compound 10 µM) 35.7% and 40.8%. The IC50 (curve of compound) was 2680 nM and 1740 nM.

Values taken from PubChem BioAssay AID2060353 (Molecular Pharmacology Branch, DTP, NCI, 2025).
